Where “and” joins values, the source holds several entries; their conditions need not be identical. Identical values can stand only once.
Tests used:
[1] = target: human dopamine D2L receptor (Homo sapiens, UniProt P14416); experiment: Dopamine D2L radioligand binding ([3H]Spiperone); conditions: percent inhibition of specific binding, compound at 1 μM; for Inhibition of ligand binding, Dopamine D2L: 1 µM; for inhibition at 1 µM: read-out: Inhibition of ligand binding, Dopamine D2L
Excerpt: Non-specific binding was estimated in the presence of […] Haloperidol. Receptor proteins were filtered and washed, the filters were then counted to determine [^3H]Spiperone specifically bound. […] Biochemical assay results are presented as the percent inhibition of specific binding in Table 9.

[2] = target: T1, human recombinant serotonin (5-Hydroxytryptamine) 5-HT2A receptor (Homo sapiens, UniProt P28223); experiment: Serotonin 5-HT2A radioligand binding ([3H]Ketanserin); conditions: for inhibition at 0.1 µM: read-out: Inhibition of ligand binding, Serotonin 5-HT2A (percent inhibition of specific binding), compound at 0.1 μM; for inhibition at 1 µM: read-out: Inhibition of ligand binding, Serotonin 5-HT2A (percent inhibition of specific binding), compound at 1 μM
T1 construct: expressed in transfected cells; host or cells: Chinese hamster ovary (CHO-K1) cells
T1 sequence (P28223 whole entry): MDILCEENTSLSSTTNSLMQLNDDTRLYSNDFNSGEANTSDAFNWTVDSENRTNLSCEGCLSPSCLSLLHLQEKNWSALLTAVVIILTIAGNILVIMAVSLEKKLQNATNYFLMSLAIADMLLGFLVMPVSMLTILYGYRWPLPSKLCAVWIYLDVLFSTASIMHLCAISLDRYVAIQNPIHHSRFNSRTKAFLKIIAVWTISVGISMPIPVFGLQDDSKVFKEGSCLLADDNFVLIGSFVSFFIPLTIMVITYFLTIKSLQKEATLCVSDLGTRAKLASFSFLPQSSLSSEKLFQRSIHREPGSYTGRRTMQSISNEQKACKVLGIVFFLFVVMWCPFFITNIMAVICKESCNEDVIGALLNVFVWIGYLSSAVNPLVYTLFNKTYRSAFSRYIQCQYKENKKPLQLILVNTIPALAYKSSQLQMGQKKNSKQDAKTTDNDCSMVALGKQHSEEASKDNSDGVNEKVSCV
Description: Compounds of the invention were incubated with 0.5 nM [^3H]Ketanserin for 60 min. at 25° C. Non-specific binding was estimated in the presence of 1 μM Mianserin. Receptor proteins were filtered and washed, the filters were then counted to determine [^3H]Ketanserin specifically bound.

[3] = target: T2, human recombinant serotonin (5-Hydroxytryptamine) 5-HT2C receptor (Homo sapiens, UniProt P28335); experiment: Serotonin 5-HT2C radioligand binding ([3H]Mesulergine); conditions: read-out: Inhibition of ligand binding, Serotonin 5-HT2C (percent inhibition of specific binding); for inhibition at 0.1 µM: compound at 0.1 μM; for inhibition at 1 µM: compound at 1 μM
T2 construct: expressed in transfected cells; host or cells: Chinese hamster ovary (CHO-K1) cells
T2 sequence (P28335 33-458): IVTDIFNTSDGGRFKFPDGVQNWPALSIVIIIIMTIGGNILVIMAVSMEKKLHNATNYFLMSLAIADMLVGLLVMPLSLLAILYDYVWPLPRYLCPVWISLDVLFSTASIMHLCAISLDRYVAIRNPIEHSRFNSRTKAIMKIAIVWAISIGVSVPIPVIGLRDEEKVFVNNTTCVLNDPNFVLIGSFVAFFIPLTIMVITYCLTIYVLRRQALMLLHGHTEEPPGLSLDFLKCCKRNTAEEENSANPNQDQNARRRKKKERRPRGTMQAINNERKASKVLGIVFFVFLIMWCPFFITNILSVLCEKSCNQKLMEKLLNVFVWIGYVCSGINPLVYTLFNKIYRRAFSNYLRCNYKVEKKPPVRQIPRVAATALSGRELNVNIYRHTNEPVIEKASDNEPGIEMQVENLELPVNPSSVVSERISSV
Method in brief: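 Compounds tested at 1 μM or lower (1% DMSO vehicle) for displacement of 1 nM [3H]Mesulergine over 60 min at 25° C. Specific binding determined by filtration counting, with 1 μM Mianserin defining non-specific binding; values are percent inhibition.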

[4] = target: T3, human recombinant serotonin (5-Hydroxytryptamine) 5-HT6 receptor (Homo sapiens, UniProt P50406); experiment: Serotonin 5-HT6 radioligand binding ([3H]LSD); conditions: read-out: Inhibition of ligand binding, Serotonin 5-HT6 (percent inhibition of specific binding); for inhibition at 0.1 µM: compound at 0.1 μM; for inhibition at 1 µM: compound at 1 μM
T3 construct: expressed in transfected cells; host or cells: human HeLa cells
T3 sequence (P50406 whole entry): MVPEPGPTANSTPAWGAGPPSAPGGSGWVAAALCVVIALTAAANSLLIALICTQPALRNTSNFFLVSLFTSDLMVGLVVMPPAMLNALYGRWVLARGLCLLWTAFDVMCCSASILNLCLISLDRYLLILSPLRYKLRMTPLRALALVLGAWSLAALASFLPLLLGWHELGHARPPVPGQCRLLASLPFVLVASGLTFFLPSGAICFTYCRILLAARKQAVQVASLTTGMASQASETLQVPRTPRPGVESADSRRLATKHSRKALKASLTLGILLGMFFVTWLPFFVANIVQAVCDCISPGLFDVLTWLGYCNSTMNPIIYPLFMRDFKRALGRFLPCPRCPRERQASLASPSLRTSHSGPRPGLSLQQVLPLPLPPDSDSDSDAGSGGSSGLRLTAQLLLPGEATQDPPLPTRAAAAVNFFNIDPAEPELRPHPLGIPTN
Description: Compounds of the invention were incubated with 1.5 nM [3H]Lysergic acid diethylamide (LSD) for 120 min. at 37° C. […] Receptor proteins were filtered and washed, the filters were then counted to determine [3H]LSD specifically bound. Compounds were screened at 1 μM or lower, using 1% DMSO as vehicle. Biochemical assay results are presented as the percent inhibition of specific binding in Table 10.

[5] = target: T4, human recombinant histamine H2 receptor (Homo sapiens, UniProt P25021); experiment: Histamine H2 radioligand binding ([125I]Aminopotentidine); conditions: read-out: Histamine Binding (1 μM) H2, percent inhibition of specific binding, 1 μM
T4 construct: expressed in transfected cells; host or cells: Chinese hamster ovary (CHO) K1 cells
T4 sequence (P25021 whole entry): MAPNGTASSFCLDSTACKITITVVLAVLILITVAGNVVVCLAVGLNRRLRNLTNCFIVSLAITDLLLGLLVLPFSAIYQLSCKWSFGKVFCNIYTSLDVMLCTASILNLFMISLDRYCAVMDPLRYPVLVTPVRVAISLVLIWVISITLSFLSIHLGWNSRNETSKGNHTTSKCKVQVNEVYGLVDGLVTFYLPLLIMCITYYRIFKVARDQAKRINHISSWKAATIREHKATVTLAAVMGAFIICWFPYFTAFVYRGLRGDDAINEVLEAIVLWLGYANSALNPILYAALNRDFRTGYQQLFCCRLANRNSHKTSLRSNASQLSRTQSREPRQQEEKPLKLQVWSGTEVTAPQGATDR
Description: To evaluate in radioligand binding assays the activity of compounds of the invention, human recombinant histamine H2 receptor expressed in Chinese hamster ovary (CHO) K1 cells (Ruat, M., Proc. Natl. Acad. Sci. USA. 87(5):1658, 1990) in a 50 mM Phosphate buffer, pH 7.4 was used. Compounds of the invention were incubated with 0.1 nM [^125I]Aminopotentidine for 120 min. at 25° C. Non-specific binding was estimated in the presence of 3 μM Tiotidine. Receptor proteins were filtered and washed, the filters were then counted to determine [^125I]Aminopotentidine specifically bound.

[6] = target: human recombinant serotonin (5-Hydroxytryptamine) 5-HT7 receptor (Homo sapiens, UniProt P34969); experiment: Serotonin 5-HT7 radioligand binding ([3H]LSD); conditions: compound at 1 μM; read-out: Inhibition of ligand binding, Serotonin 5-HT7 (percent inhibition of specific binding)
human recombinant serotonin (5-Hydroxytryptamine) 5-HT7 receptor, sequence (P34969 whole entry): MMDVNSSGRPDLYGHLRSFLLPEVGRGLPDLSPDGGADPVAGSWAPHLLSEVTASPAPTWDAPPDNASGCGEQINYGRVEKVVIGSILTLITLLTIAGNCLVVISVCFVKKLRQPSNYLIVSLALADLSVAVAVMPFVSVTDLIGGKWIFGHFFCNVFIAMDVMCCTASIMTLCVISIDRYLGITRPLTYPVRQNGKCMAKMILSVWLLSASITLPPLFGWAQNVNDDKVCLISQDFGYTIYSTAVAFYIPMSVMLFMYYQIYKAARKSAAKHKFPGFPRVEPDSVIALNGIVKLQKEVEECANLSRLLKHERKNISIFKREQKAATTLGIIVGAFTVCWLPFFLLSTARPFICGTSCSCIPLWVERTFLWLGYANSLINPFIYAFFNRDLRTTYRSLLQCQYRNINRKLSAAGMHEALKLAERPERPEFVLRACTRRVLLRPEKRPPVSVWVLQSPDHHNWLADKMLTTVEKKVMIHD
Excerpt: Receptor proteins were filtered and washed, the filters were then counted to determine [^3H]LSD specifically bound.

histamine receptor H1 = histamine receptor H1 (Homo sapiens, UniProt P35367); experiment: Histamine H1 radioligand binding ([3H]Pyrilamine); conditions: for inhibition at 1 µM: read-out: Histamine Binding (1 μM) H1, percent inhibition of specific binding, 1 μM
histamine receptor H1, sequence (P35367 whole entry): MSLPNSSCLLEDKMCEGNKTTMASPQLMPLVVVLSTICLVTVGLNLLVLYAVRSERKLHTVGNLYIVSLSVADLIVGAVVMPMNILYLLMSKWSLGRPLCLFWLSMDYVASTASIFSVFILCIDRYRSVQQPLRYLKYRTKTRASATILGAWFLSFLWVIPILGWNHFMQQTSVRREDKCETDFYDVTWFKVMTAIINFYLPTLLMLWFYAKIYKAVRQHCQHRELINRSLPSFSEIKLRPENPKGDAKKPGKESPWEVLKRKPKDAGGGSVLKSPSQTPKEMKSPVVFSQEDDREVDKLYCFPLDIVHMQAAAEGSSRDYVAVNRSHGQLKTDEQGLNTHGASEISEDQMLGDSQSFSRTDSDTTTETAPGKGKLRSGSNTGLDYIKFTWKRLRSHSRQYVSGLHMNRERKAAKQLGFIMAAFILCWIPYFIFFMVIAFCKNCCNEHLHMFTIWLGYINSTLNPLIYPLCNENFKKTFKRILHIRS
Method in brief: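 Values are percent inhibition of specific [3H]pyrilamine (1.2 nM) binding with compounds at ≤1 μM (1% DMSO vehicle); 180 min incubation at 25 °C, pH 7.4 Tris buffer, on CHO-expressed human H1 receptor; 1 μM pyrilamine defined nonspecific binding, bound ligand counted after filtration.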

human dopamine D2L receptor, sequence (P14416 whole entry): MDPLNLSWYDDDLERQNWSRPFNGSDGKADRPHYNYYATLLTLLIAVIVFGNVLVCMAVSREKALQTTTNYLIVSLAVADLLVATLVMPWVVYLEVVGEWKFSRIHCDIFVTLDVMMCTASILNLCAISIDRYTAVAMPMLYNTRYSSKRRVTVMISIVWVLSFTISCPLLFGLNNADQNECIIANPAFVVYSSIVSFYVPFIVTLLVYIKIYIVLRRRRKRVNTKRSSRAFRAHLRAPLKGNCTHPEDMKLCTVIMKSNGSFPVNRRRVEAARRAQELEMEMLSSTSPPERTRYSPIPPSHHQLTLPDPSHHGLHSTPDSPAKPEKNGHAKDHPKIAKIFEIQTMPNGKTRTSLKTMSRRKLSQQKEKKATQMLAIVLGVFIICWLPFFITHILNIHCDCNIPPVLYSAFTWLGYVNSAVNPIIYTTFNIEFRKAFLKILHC

Compound	Inhibition of ligand binding, Dopamine D2L [1] [%]	inhibition at 1 µM [1] [%]	inhibition at 0.1 µM [2] [%]	inhibition at 1 µM [2] [%]	inhibition at 0.1 µM [3] [%]	inhibition at 1 µM [3] [%]	inhibition at 0.1 µM [4] [%]	inhibition at 1 µM [4] [%]	inhibition at 1 µM [5] [%]	inhibition at 1 µM [6] [%]	Histamine Binding (1 μM) H1, percent inhibition of specific binding (histamine receptor H1)	inhibition at 1 µM (histamine receptor H1) [%]
C/C(=C\n1c2c(c3cc(C)ccc31)CN(C)CC2)c1cc(Cl)cc(Cl)c1 [Compound 218, (E)-5-(2-(3,5-dichlorophenyl)prop-1-enyl)-2,8-dimethyl-2,3,4,5-tetrahydro-1H-pyrido[4,3-b]indole]	43	40	94	99	92	96	85	99	98	93	78% and 79%	–
C/C(=C\n1c2c(c3ccc(Cl)cc31)CN(C)CC2)c1ccncc1 [Compound 219, (E)-7-chloro-2-methyl-5-(2-(pyridin-4-yl)prop-1-enyl)-2,3,4,5-tetrahydro-1H-pyrido[4,3-b]indole]	97	96	100	101	94	98	96	102	82	94	66%	60
C/C(=C/n1c2c(c3cc(C)ccc31)CN(C)CC2)c1cc(F)c(F)cc1Cl [Compound 220, (Z)-5-(2-(2-chloro-4,5-difluorophenyl)prop-1-enyl)-2,8-dimethyl-2,3,4,5-tetrahydro-1H-pyrido[4,3-b]indole]	–	32	–	99	–	98	–	99	99	104	–	91
C/C(=C\n1c2c(c3cc(C)ccc31)CN(C)CC2)c1cc(F)c(F)cc1Cl [Compound 221, (E)-5-(2-(2-chloro-4,5-difluorophenyl)prop-1-enyl)-2,8-dimethyl-2,3,4,5-tetrahydro-1H-pyrido[4,3-b]indole]	–	34	–	97	–	99	–	95	98	93	–	90
C/C(=C\n1c2c(c3cccc(Cl)c31)CN(C)CC2)c1ccncc1 [Compound 222, (E)-6-chloro-2-methyl-5-(2-(pyridin-4-yl)prop-1-enyl)-2,3,4,5-tetrahydro-1H-pyrido[4,3-b]indole]	–	82	–	100	–	99	–	102	91	69	–	25
C/C(=C/n1c2c(c3cc(C)ccc31)CN(C)CC2)c1cccc(F)c1 [Compound 225, (Z)-5-(2-(3-fluorophenyl)prop-1-enyl)-2,8-dimethyl-2,3,4,5-tetrahydro-1H-pyrido[4,3-b]indole]	–	43	–	99	–	100	–	103	98	94	–	81
C/C(=C\n1c2c(c3cc(C)ccc31)CN(C)CC2)c1cccc(F)c1 [Compound 226, (E)-5-(2-(3-fluorophenyl)prop-1-enyl)-2,8-dimethyl-2,3,4,5-tetrahydro-1H-pyrido[4,3-b]indole]	–	46	–	98	–	100	–	101	100	100	–	71
C/C(=C\n1c2c(c3ccc(F)cc31)CN(C)CC2)c1ccc(F)cc1 [Compound 227, (E)-7-fluoro-5-(2-(4-fluorophenyl)prop-1-enyl)-2-methyl-2,3,4,5-tetrahydro-1H-pyrido[4,3-b]indole]	–	97	–	103	–	103	–	107	101	90	–	52
C/C(=C\n1c2c(c3ccc(Cl)cc31)CN(C)CC2)c1ccc(F)cc1 [Compound 228, (E)-7-chloro-5-(2-(4-fluorophenyl)prop-1-enyl)-2-methyl-2,3,4,5-tetrahydro-1H-pyrido[4,3-b]indole]	–	98	–	101	–	97	–	106	102	97	–	66
C/C(=C\n1c2c(c3ccc(C(F)(F)F)cc31)CN(C)CC2)c1ccc(F)cc1 [Compound 229, (E)-5-(2-(4-fluorophenyl)prop-1-enyl)-2-methyl-7-(trifluoromethyl)-2,3,4,5-tetrahydro-1H-pyrido[4,3-b]indole]	–	100	–	100	–	100	–	107	96	89	–	54
C/C(=C\n1c2c(c3cc(C)ccc31)CN(C)CC2)c1ccc(F)c(F)c1 [Compound 230, (E)-5-(2-(3,4-difluorophenyl)prop-1-enyl)-2,8-dimethyl-2,3,4,5-tetrahydro-1H-pyrido[4,3-b]indole]	–	44	–	98	–	100	–	97	96	93	–	35
C/C(=C\n1c2c(c3cc(C)ccc31)CN(C)CC2)c1ccc(Cl)c(Cl)c1 [Compound 231, (E)-5-(2-(3,4-dichlorophenyl)prop-1-enyl)-2,8-dimethyl-2,3,4,5-tetrahydro-1H-pyrido[4,3-b]indole]	–	40	–	101	–	98	–	97	97	94	–	58
C/C(=C\n1c2c(c3c(Cl)c(Cl)ccc31)CN(C)CC2)c1ccc(F)cc1 [Compound 232, (E)-8,9-dichloro-5-(2-(4-fluorophenyl)prop-1-enyl)-2-methyl-2,3,4,5-tetrahydro-1H-pyrido[4,3-b]indole]	–	91	–	99	–	98	–	103	95	84	–	71
